One block for each compound: values may come before it. The source made the active and inactive calls.
What was measured:
[1] = molecular target: T1, Rac GTPase-activating protein 1 (Homo sapiens, UniProt Q9H0H5); assay: blockers of MgcRacGAP-driven Rac1 GTP hydrolysis – biochemical, ADP Hunter fluorescence, primary and confirmatory, confirmation (AID 624330); type: functional
T1 sequence (Q9H0H5 whole entry): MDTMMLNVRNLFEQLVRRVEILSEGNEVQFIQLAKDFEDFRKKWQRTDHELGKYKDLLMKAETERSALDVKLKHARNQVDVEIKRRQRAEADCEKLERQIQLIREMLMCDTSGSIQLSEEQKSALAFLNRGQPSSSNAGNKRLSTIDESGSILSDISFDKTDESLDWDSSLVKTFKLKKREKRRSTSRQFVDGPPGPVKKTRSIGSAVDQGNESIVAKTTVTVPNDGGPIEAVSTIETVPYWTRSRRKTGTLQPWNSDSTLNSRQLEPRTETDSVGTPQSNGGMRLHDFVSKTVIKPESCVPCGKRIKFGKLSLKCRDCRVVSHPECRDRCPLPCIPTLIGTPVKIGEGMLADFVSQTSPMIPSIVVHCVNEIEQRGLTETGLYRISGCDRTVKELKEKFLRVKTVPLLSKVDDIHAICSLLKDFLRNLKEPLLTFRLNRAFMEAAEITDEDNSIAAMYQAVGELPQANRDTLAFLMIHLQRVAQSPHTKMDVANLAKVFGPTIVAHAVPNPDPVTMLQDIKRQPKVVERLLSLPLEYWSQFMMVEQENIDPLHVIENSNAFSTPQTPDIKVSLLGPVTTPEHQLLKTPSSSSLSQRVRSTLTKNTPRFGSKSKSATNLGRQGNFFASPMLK

[2] = molecular target: T2, Heat shock factor protein 1 (Mus musculus, UniProt P38532); assay: decrease of HSF1-responsive luciferase luminescence – cell-based, NIH3T3, dose retest, confirmation (AID 2382); type: functional;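 also: NIH3T3 fibroblasts with HSF1-driven luciferase reporter stressed by proteasome inhibitor MG132; luminescence from HSF1-driven luciferase expression after 8 hours of MG132 stress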
T2 sequence (P38532 whole entry): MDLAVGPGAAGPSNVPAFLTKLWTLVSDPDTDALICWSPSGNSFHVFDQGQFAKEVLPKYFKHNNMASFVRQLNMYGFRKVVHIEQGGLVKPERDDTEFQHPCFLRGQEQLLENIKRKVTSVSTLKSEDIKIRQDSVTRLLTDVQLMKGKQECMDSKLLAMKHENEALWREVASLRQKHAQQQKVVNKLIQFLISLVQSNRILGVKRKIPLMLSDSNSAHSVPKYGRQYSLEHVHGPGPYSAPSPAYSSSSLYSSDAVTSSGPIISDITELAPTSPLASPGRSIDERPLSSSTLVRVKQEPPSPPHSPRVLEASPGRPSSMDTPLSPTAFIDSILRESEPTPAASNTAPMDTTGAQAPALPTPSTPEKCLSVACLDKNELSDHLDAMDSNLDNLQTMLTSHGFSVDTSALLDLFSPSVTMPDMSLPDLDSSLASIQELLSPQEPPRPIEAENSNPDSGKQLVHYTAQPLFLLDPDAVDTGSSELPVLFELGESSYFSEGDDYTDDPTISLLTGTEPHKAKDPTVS

[3] = molecular target: T3, Corticotropin-releasing factor receptor 2/Corticotropin-releasing factor-binding protein (Homo sapiens, UniProt P24387+Q13324); assay: activators of CRF receptor 2 with binding protein – uHTS hits, confirmation (AID 602473); type: functional; conditions: read-out: EC50_Mean
T3 sequence (Q13324 whole entry): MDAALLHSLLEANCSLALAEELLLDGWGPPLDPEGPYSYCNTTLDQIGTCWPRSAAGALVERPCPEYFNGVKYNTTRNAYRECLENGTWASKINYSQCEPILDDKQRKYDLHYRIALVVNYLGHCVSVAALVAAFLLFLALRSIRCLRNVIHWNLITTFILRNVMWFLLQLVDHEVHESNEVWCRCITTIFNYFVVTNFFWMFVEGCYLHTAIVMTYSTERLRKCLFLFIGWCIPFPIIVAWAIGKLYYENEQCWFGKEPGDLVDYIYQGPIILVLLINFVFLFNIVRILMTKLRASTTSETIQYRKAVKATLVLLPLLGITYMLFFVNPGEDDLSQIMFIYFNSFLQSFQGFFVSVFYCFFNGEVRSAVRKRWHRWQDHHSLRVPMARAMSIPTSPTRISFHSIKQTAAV
T3 sequence (P24387 whole entry): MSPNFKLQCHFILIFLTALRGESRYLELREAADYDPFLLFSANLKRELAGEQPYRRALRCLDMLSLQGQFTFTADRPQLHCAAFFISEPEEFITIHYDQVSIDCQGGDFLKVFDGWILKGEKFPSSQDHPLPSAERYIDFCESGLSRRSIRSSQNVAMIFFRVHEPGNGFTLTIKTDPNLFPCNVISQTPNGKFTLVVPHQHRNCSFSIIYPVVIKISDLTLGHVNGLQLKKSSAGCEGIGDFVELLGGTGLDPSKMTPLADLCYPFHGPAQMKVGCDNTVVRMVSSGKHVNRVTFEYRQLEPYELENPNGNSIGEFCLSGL

[4] = molecular target: T3, Corticotropin-releasing factor receptor 2/Corticotropin-releasing factor-binding protein; assay: Dose Response confirmation of uHTS hits for small molecule antagonists of the CRF-binding protein and CRF-R2 receptor complex.; type: functional; conditions: read-out: IC50_Mean
[5] = molecular target: T2, Heat shock factor protein 1; assay: enhancement of HSF1-driven luciferase signal – cell-based, NIH3T3, luminescence, dose retest, confirmation (AID 435004); type: functional;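 also: stress induced by proteasome inhibitor MG132 added 30 min after compound; luciferase reporter driven by HSF1 response element in NIH3T3 cells; actives raise luminescence as potentiators of the MG132 stress response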
[6] = Luminescence Cell-Based Dose Response HTS to Identify Activators of Luciferase Translation or Activity in H4 […] Cells. [Related pubchem assays: 1829 (Project Summary), 1814 (Primary HTS)]; type: functional
Cytochrome P450 2C9 = Cytochrome P450 2C9 (Homo sapiens, UniProt P11712)
Cytochrome P450 3A4 = Cytochrome P450 3A4 (Homo sapiens, UniProt P08684);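 also: CYP3A4 tested as one member of a cytochrome P450 panel screen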
Sequence of Cytochrome P450 3A4 (P08684 whole entry): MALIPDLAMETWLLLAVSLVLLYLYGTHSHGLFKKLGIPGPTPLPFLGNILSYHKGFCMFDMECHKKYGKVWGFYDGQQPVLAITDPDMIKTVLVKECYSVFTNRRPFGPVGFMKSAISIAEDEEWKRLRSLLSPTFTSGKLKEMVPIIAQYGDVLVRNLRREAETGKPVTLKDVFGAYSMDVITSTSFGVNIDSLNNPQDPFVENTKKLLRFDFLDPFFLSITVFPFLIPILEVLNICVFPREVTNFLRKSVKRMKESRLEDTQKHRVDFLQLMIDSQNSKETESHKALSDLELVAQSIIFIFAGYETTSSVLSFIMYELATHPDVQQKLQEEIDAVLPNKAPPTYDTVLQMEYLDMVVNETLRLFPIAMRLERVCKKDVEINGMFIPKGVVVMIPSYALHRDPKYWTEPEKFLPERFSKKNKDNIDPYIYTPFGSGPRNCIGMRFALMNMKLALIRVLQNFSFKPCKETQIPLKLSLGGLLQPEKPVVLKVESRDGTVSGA

Sequence of Cytochrome P450 2C9 (P11712 whole entry): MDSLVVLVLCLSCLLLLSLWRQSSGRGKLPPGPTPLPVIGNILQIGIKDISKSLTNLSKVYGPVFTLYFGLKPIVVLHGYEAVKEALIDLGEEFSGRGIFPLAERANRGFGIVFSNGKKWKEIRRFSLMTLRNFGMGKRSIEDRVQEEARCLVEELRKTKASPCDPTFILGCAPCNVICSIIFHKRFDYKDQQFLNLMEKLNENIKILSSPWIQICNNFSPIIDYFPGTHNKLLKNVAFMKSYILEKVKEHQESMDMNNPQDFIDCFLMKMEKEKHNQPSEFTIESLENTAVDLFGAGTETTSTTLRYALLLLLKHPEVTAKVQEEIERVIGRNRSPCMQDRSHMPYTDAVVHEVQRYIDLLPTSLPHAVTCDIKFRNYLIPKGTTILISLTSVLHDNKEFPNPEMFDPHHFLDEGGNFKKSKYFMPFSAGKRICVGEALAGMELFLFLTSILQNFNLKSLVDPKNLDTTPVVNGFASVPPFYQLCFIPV

SMILES: COc1cc([C@H]2OC[C@H]3[C@@H]2CO[C@H]3c2ccc(O)c(OC)c2)ccc1O [PINORESINOL]
IC50 [1]: 171 µM (active)

SMILES: CC(C)(C)c1ccc(/C=C(\C#N)C(=O)Nc2ccccn2)cc1
EC50 [2]: > 195 µM (not active)

SMILES: COc1ccc(Br)cc1CN1CCC(N2CCCC2)CC1
IC50 [1]: 59.6 µM (active)

SMILES: CCC(C(=O)NCCN1CCOCC1)n1c2ccccc2c2nc(=O)cc(C)n21 (stereo unspecified)
EC50 [3]: > 53 µM (inactive)
IC50 [4]: > 47.1 µM (inactive)

SMILES: CCOc1ccc(OCCSc2nc(N)cc(=O)[nH]2)cc1
EC50 [3]: > 53 µM (inactive)
IC50 [4]: > 47.1 µM (inactive)

SMILES: Cc1ccc(S(=O)(=O)N2CCN(C(=O)COc3ccc(C)nc3[N+](=O)[O-])CC2)c(C)c1
EC50 [3]: > 53 µM (inactive)
IC50 [4]: > 47.1 µM (inactive)

SMILES: CCOc1ccccc1N1CCN(C(=O)C2CSC3(C)CCC(=O)N23)CC1 (stereo unspecified)
EC50 [3]: > 53 µM (inactive)
IC50 [4]: > 47.1 µM (inactive)

SMILES: Cc1[nH]n(-c2ccccc2)c(=O)c1/C=N/CCc1ccccc1
EC50 [5]: 85.4 µM (active)

SMILES: NC(=NOC(=O)COc1ccc(Br)cc1)c1ccncc1
EC50 [3]: > 53 µM (inactive)
IC50 [4]: > 47.1 µM (inactive)

SMILES: Cc1ccc2[nH]c3c(c2c1)CCN(C)C3
EC50 [2]: > 195 µM (not active)

SMILES: COc1cccc(C(=O)Nc2cc(C(=O)NCc3ccc(C)cc3)ccc2N2CCC3(CC2)CC(c2cccc(Br)c2)=NO3)c1
EC50 [3]: > 53 µM (inactive)
IC50 [4]: < 0.368 µM (active)

SMILES: Cc1ccc(C(C)C)c(OCCCCN2CCNCC2)c1
IC50 [1]: 87.9 µM (active)

SMILES: Cc1c(C(=O)N2CC(C(=O)N3CCCCC3)Oc3ccccc32)oc2ccccc12 (stereo unspecified)
EC50 [3]: > 53 µM (inactive)
IC50 [4]: > 47.1 µM (inactive)

SMILES: CCC(C)N(C(=O)C(F)(F)F)C(C(=O)NC1CCCCC1)c1ccncc1 (stereo unspecified)
EC50 [2]: > 195 µM (not active)

SMILES: COc1ccc2nnc(-c3ccc(C(F)(F)F)cc3)n2n1
EC50 [2]: > 195 µM (not active)

SMILES: CCN(CC)CCCN1C(=O)c2oc3ccccc3c(=O)c2C1c1cccc(OC)c1OC (stereo unspecified)
EC50 [5]: > 260 µM (inactive)

SMILES: O=C(CN1CCN(C2CCCCC2)CC1)Nc1ccccc1-c1ccccc1
IC50 [1]: 78.1 µM (active)

SMILES: C=CCNC(=O)c1c(C(F)(F)F)nn(C)c1Cl
EC50 [2]: > 195 µM (not active)

SMILES: CCOC(=O)c1c(S(=O)(=O)N2CCCCC2C)c(C)n(C)c1C (stereo unspecified)
EC50 [2]: > 195 µM (not active)

SMILES: CCC(C)[C@H](NC(=O)NCc1cccc(OC)c1)C(=O)O (stereo partly specified)
EC50 [2]: > 195 µM (not active)

SMILES: O=C(COc1ccc(Cl)cc1)N1CCCC1
EC50 [2]: > 195 µM (not active)

SMILES: Cc1ccccc1-n1c(C)nnc1SCc1nc2ccccc2s1
EC50 [6]: 33.1 µM (active)

SMILES: COc1ccc(OC2C(=O)N(c3cc(C)ccc3C)C2c2ccc(OC)c(OC)c2)cc1 (stereo unspecified)
EC50 [3]: > 53 µM (inactive)
IC50 [4]: > 47.1 µM (inactive)

SMILES: O=C(NCCN1CCCCC1)Nc1ccccc1Cl
EC50 [2]: > 195 µM (not active)

SMILES: COc1cc(/C=N\NC(=O)CNC(=O)C(c2ccccc2)c2ccccc2)ccc1O
IC50 [1]: 54.6 µM (active)

SMILES: CCOC(=O)c1c(CN2CCC(C)CC2)n(C)c2cc(Br)c(OC)cc12
EC50 [5]: > 260 µM (inactive)

SMILES: COc1ccc(C)cc1NC(=O)C(NCC(O)c1ccccc1)c1ccccc1 (stereo unspecified)
IC50 [1]: 96.8 µM (active)

SMILES: Cc1cc(O)nc(SCc2nc3ccccc3c(=O)n2-c2ccccc2C)n1
EC50 [5]: > 260 µM (inactive)

SMILES: COc1ccc(-c2noc(C(=O)NCc3ccc(F)cc3)n2)cc1OC
EC50 [3]: > 53 µM (inactive)
IC50 [4]: > 47.1 µM (inactive)

SMILES: OC(CNCc1ccc(F)cc1)(c1ccc(F)cc1)c1ccc(F)cc1
AC50 (Cytochrome P450 2C9): 12.6 µM (inconclusive)
EC50 [5]: > 260 µM (inactive)

SMILES: CCCn1c(C)nc2c(c1=O)c1nc3ccccc3nc1n2CCC1=CCCCC1
EC50 [5]: > 260 µM (inactive)
AC50 (Cytochrome P450 3A4): 3.16 µM (inconclusive)

SMILES: CCN1CCN(CCOc2ccccc2OCc2ccccc2)CC1
IC50 [1]: 94.5 µM (active)

SMILES: CN(C)/C=C/C(=O)c1ccc(S(=O)(=O)c2ccccc2)cc1
EC50 [2]: > 195 µM (not active)

SMILES: Cc1onc(-c2ccccc2)c1C(=O)OCc1nnc(-c2ccccc2)o1
EC50 [5]: > 260 µM (inactive)

SMILES: COc1ccc(C(=O)/C=C2/C(=O)Nc3ccccc32)cc1OC
EC50 [5]: > 260 µM (inactive)

SMILES: Cc1nn(C(=O)c2c(-c3ccccc3)noc2C)c(C)c1N=Nc1cc(C(F)(F)F)cc(C(F)(F)F)c1
EC50 [3]: > 53 µM (inactive)
IC50 [4]: > 47.1 µM (inactive)

Other lines, results leading:

IC50 [1]: 27.3 µM (active)
SMILES: COc1cc(/C=N/NC(=O)c2ccoc2C)ccc1O

EC50 [3]: > 53 µM (inactive)
IC50 [4]: > 47.1 µM (inactive)
SMILES: CCOC(=O)c1cn2nc(Oc3cccc(F)c3)ccc2n1

IC50 [1]: 47.7 µM (active)
SMILES: COc1cc(/C=C/C(=O)OCC(=O)N2CCC(Cc3ccccc3)CC2)ccc1O

EC50 [2]: 14.8 µM (active)
SMILES: COc1ccc(C)cc1NC(=O)C(=O)NNC(=O)COc1ccc(Cl)cc1

EC50 [2]: > 195 µM (not active)
SMILES: CC1Cc2ccccc2N1CC(=O)NC(=O)NCc1ccccc1 (stereo unspecified)

IC50 [1]: 79.4 µM (active)
SMILES: COc1cc(/C=N/NC(=O)/C(=C\c2ccc3c(c2)OCO3)NC(=O)c2ccccc2)ccc1O

EC50 [2]: > 195 µM (not active)
SMILES: CCCC[C@@H]1C[C@H]1[C@@H](NC(=O)c1ccco1)c1ccc(Cl)cc1

EC50 [2]: > 195 µM (not active)
SMILES: CCC(=O)N1CCc2cc(S(=O)(=O)NCCC(=O)Nc3ccccc3C)ccc21

EC50 [3]: > 53 µM (inactive)
IC50 [4]: > 47.1 µM (inactive)
SMILES: COc1ccc(OC)c(CN2CCN(S(=O)(=O)c3ccc(NC(C)=O)cc3)CC2)c1

EC50 [5]: > 260 µM (inactive)
SMILES: Cc1ccc(/C=C2\Oc3cc(OC(=O)N4CCOCC4)ccc3C2=O)cc1

EC50 [2]: > 195 µM (not active)
SMILES: O=C(CSc1nnnn1CCCO)Nc1ccc2c(c1)OCO2

EC50 [5]: > 260 µM (inactive)
SMILES: CCOC(=O)C1CCCN(CC(=O)Nc2c(C(=O)OC)[nH]c3ccccc23)C1 (stereo unspecified)

EC50 [3]: > 53 µM (inactive)
IC50 [4]: > 47.1 µM (inactive)
SMILES: Brc1ccc(-c2noc(CCc3ccccc3)n2)o1

EC50 [2]: > 195 µM (not active)
SMILES: CC(=O)Nc1c(C(=O)Nc2ccc3c(c2)OCO3)oc2ccccc12

EC50 [3]: > 53 µM (inactive)
IC50 [4]: > 47.1 µM (inactive)
SMILES: O=C(Nc1ccccn1)C1CCN(S(=O)(=O)c2ccc3ccccc3c2)CC1

EC50 [5]: > 260 µM (inactive)
SMILES: COC(=O)CNC(c1ccccc1)c1cc(Br)ccc1N (stereo unspecified)

EC50 [3]: > 53 µM (inactive)
IC50 [4]: > 47.1 µM (inactive)
SMILES: O=C(CCCc1cccs1)Nc1ccc2c(c1)OCO2

EC50 [5]: > 260 µM (inactive)
SMILES: O=C(N/N=C/CCc1ccccc1)c1ccccc1

— ChEMBL document CHEMBL1201862, “PubChem BioAssay data set” (2004)
